Consider three molecules from patent publication US11812774B2, “Composition for browning inhibition and use of same” (SUNTORY HOLDINGS LIMITED, priority 2016, dated 2023).

Series [1] is described as follows: Accelerated aging of epicatechin/glyoxal model solution, change in visible absorption spectrum. The conditions noted are these: baicalin 0.5 g/L added to epicatechin 0.5 g/L + glyoxal 0.01 g/L; condition 3 (oxygen aeration, 123° C., 30 minutes); compared to no baicalin. Here is the method: The preparation prepared above was subjected to an aging test under the following conditions, and then the visible absorption spectrum was measured. Condition 1: purged with nitrogen, stored at 4° C. for one hour Condition 2: stored at 121° C. for […] Condition 3: after oxygen aeration, stored at 123° C. for 30 minutes Baicalin (0.5 g/L) was added to a model solution obtained by mixing epicatechin (0.5 g/L) with glyoxal (0.01 g/L). The mixture was accelerated-aged under condition 3 (after oxygen aeration, stored at 123° C. for 30 minutes) in Test Example 2, and the amount of change in the visible absorption spectrum (ΔABU) before and after accelerated aging was calculated. FIG. 9 is a diagram showing changes in a visible absorption spectrum of the model solution by addition of baicalin.

Series [2] is described as follows: Accelerated aging of baicalin/epicatechin/glyoxal mixtures, visible absorption spectrum and residual catechin by LC-MS. The conditions noted are these: 15 minutes. Here is the method:
The following three kinds of solutions were prepared. B+G: a mixture of baicalin (0.5 g/L) and glyoxal (0.01 g/L) B+C+G: a mixture of baicalin (0.5 g/L), epicatechin (0.5 g/L), and glyoxal (0.01 g/L) C+G: a mixture of epicatechin (0.5 g/L) and glyoxal (0.01 g/L)
These solutions were kept in an autoclave at 121° C. for 15 minutes for accelerated aging. After accelerated aging, changes in color were checked by visual observation, and further, the visible absorption spectrum was measured.
FIG. 10(a) is a picture showing the appearance of the mixture of baicalin and glyoxal (B+G), the mixture of baicalin, epicatechin, and glyoxal (B+C+G), and the mixture of epicatechin and glyoxal (C+G) after accelerated aging; and FIG. 10(b) is a diagram showing visible absorption spectra of the same (FIG. 10(a): picture, (b): visible absorption spectra). In FIG. 10(b), the solid line indicates the mixture (B+G), the dashed line indicates the mixture (B+C+G), and the long dashed dotted line indicates the mixture (C+G).
Further, after accelerated aging, the amount of epicatechin (the amount of a residual catechin) in the mixture (B+C+G) and the mixture (C+G) was measured by LC-MS under the same conditions as in Test Example 3.

Series [3] can be described thus: LC-MS analysis of accelerated-aged mixture of baicalin and glyoxal. The conditions noted are these: baicalin 0.5 g/L + glyoxal 0.01 g/L, condition 3 (oxygen aeration, 123° C., 30 min). Here is the method:
A mixture (green tea model) of epicatechin (EC) (0.5 g/L) and glyoxal (0.01 g/L) was accelerated-aged under condition 3 (after oxygen aeration, stored at 123° C. for 30 minutes) in Test Example 2, and analyzed by LC-MS under the following conditions. • LC-MS measurement conditions • LC • Column: 2.5 Cholester (Nacalai Tesque, Inc.) (100 mmL.×2.0 I.D.) • Mobile phase: • A: 0.1% formic acid/H2O • B: 0.1% formic acid/CH3CN • Gradient elution method • Time program (concentration of B solution is expressed in percent by volume): B 5% (0-0.5 min)→B 32% (20 min)→B 100% (25-27.5 min)→B 5% (27.51-30 min) • Flow rate: 0.25 mL/min • Column temperature: 40° C. • Sample injection volume: 2 μL • MS • Probe voltage: +4.5 kV (ESI positive mode) • −3.5 kV (ESI negative mode) • Nebulizer gas flow rate: 1.5 L/min • Drying gas flow rate: 20 L/min • DL temperature: 250° C. • DL voltage/Q-array voltage: default value • SCAN: m/z 100-800 (positive, negative) • SIM: A mixture of baicalin (0.5 g/L) and glyoxal (0.01 g/L) was accelerated-aged under condition 3 (after oxygen aeration, stored at 30 min at 123° C.) of Test Example 2, and analyzed by LC-MS. LC-MS measurement conditions are the same as those in Test Example 5. […]

Series [4] is described as follows: Aldehyde-scavenging substance screening (Br value and Xt value, 96-well microplate). Conditions: sample solution 600 ppm total phenol; epicatechin + glyoxal; 70° C., 16 hours; Br and Xt values relative to negative control; N=3. Here is the method:
Aldehyde-scavenging ability of a candidate substance was evaluated based on how much the candidate substance added to a mixture of glyoxal (model aldehyde) and epicatechin (reaction substrate) can inhibit browning. The negative control was distilled water. As positive control, fractions 6, 7, and 8 (mixtures containing baicalin and baicalin glycosides (compounds containing one to three glucose molecules bonded to a sugar moiety of baicalin)) obtained in Preparation 1 were used.
A glyoxal aqueous solution (39% (v/v)) and epicatechin were used as reagents. […]
Accelerated aging was performed at 70° C. for 16 hours, and the area under the spectrum at 400 to 600 nm and the absorbance at 487 nm were measured.
The amount of change in the visible absorbance before and after accelerated aging was calculated. […] The Br value indicates the amount of change Δ in the area under the spectrum at 400 to 600 nm, and the Xt value indicates the amount of change Δ in the absorbance at 487 nm. […] In FIG. 14, the solid line indicates the absorbance when a substance having an aldehyde-scavenging effect (a substance having a browning-inhibiting effect) was added, and the dashed line indicates the absorbance of the negative control. […]

How the values of series [5] were obtained:
A sample solution was prepared by dissolving a candidate substance in water to adjust the total phenol amount derived from the candidate substance to 600 ppm. The total phenol amount was measured by the Folin-Denis method, using gallic acid as a standard substance.

As to `O=C(O)[C@H]1O[C@@H](Oc2cc3oc(-c4ccccc4)cc(=O)c3c(O)c2O)[C@H](O)[C@@H](O)[C@@H]1O` [baicalin], the “amount of change in the visible absorption spectrum (ΔABU) before and after accelerated aging” value in series [1] was “significantly reduced”. In series [2] (B+C+G (baicalin 0.5 g/L, epicatechin 0.5 g/L, glyoxal 0.01 g/L) vs C+G, autoclave 121° C.), the “absorption at 487 nm after accelerated aging” value was “significantly reduces”. In addition, the “amount of the residual catechin in a solution after accelerated aging” value in series [2] (B+C+G vs C+G, 121° C., epicatechin by LC-MS) is reported as “increases”. In addition, in series [3], the “production of compound having a xanthylium structure (brown) by reaction with glyoxal” value is listed as “No compound having a xanthylium structure that exhibits brown was detected”.
Take `O=C(O)[C@H]1O[C@@H](Oc2cc3oc(-c4ccc(O)cc4)cc(=O)c3c(O)c2O)[C@H](O)[C@@H](O)[C@@H]1O` [scutellarin]: the aldehyde-scavenging ability result in series [4] is given as “confirmed”.
In the case of `COc1ccc(-c2oc3c(CC=C(C)C)c(O[C@@H]4O[C@H](CO)[C@@H](O)[C@H](O)[C@H]4O)cc(O)c3c(=O)c2O[C@@H]2O[C@@H](C)[C@H](O)[C@@H](O)[C@H]2O)cc1` [icariin], the aldehyde-scavenging ability result in series [4] is listed as “confirmed”. The water solubility entry in series [5] is given as “poor water solubility”.
